The source of these data is patent US4032641A, “Nicotinoyl carnitine derivatives” (Tanabe Seiyaku Co., Ltd., priority 1976, dated 1977).

Counter-ions that a name gives are not always drawn. Bounds are passed on as bounds.

One data set concerns Serum-cholesterol. Nature of the data set: Experiment I: serum-cholesterol after oral administration to fasted rats. The class given is in vivo, rat. The note with it: 1 mmol/kg, mean. The method, then:
(§1) Test compounds are administered orally to groups of 5 rats (body weight: about 290 g) which fasted overnight. Blood samples were collected from the tail vein at intervals. Blood free fatty acid, serum-triglyceride and serum-cholesterol were determined, respectively.

The test system of another data set is Blood-free fatty acids. Nature of the data set: Experiment I: blood free fatty acid after oral administration to fasted rats. As to conditions: 1 mmol/kg, mean. It is filed as in vivo, rat. The method, then: as §1
Another data set deals with Serum triglyceride. Nature of the data set: Experiment I: serum-triglyceride after oral administration to fasted rats. The class given is in vivo, rat. As to conditions: 1 mmol/kg, rats about 290 g, mean. The method, then: as §1
In a further data set the test system is Serum-triglyceride. Nature of the data set: Experiment II: serum-triglyceride after oral administration to fasted rats. The class given is in vivo, rat. As to conditions: 1 mmol/kg, rats about 170 g, mean ± standard error. The method, then: Test compounds were administered orally to groups of 5 rats (body weight: about 170 g) which fasted overnight. Blood samples were collected from the tail vain at intervals, and serum-triglyceride was determined.

Data set [1] is described as follows: Experiment III: acute toxicity, oral, ddY male mice (Van der Waerden's Method). As to conditions: mouse, in vivo, ddY-strain male mice. The method, then: (§2) Test compounds were administered orally to ddY male mice or SD-strain male rats. Seventy-two hours after the administration, 50% lethal dose of the test compounds were estimated in accordance with Van der Waerden's Method.

Data set [2] is described as follows: Experiment III: acute toxicity, oral, SD-strain male rats (Van der Waerden's Method). As to conditions: rat, in vivo. The method, then:
as §2

For data set [3] the following is noted: use as hypolipidemic agent; known; cited from earlier work.
The test system of data set [4] is cholesterol and triglyceride levels in plasma. The note with it: literature; cited from earlier work.
The mark [5] stands for this setting: 6 hrs after oral administration.
Setting [6] is: 10 hrs after oral administration.
[7] abbreviates: 0 hrs after oral administration.
The mark [8] stands for this setting: 2 hrs after oral administration.
Where [9] appears, read: 12 hrs after oral administration.

Regarding `CCOC(=O)CC(C[N+](C)(C)C)OC(=O)c1cccnc1` (stereo not shown) [A, Nicotinoyl carnitine ethyl ester nitrate . HNO3], the Serum-cholesterol in the data set with Serum-cholesterol (setting [5]) was 55 mg/dL; in the data set with Serum-cholesterol (setting [6]), 50 mg/dL. The Blood-free fatty acids in the data set on Blood-free fatty acids (setting [7]) was found to be 52 μ moles/dl; in the data set on Blood-free fatty acids (setting [8]) it was 27 μ moles/dl; with Blood-free fatty acids (setting [5]), 29 μ moles/dl; in the data set with Blood-free fatty acids (setting [6]) it was 65 μ moles/dl. In addition, the Serum triglyceride is 12 mg/dL in the data set with Serum triglyceride (setting [5]) and 16 mg/dL with Serum triglyceride (setting [6]).
Turning to `C[N+](C)(C)CC(CC(=O)OCc1ccccc1)OC(=O)c1cccnc1` (stereo not shown) [C, Nicotinoyl carnitine benzyl ester chloride], the Serum-triglyceride with Serum-triglyceride (setting [5]) is 10 ± 1 mg/dL; in the data set on Serum-triglyceride (setting [9]) it was 23 ± 3 mg/dL.
Take `CCOC(=O)CC(C[N+](C)(C)C)OC(=O)c1cccnc1` (stereo not shown) [B, Nicotinoyl carnitine ethyl ester chloride. H2 O]: the LD50 at 72 h stood at 5900 mg/kg in data set [1] and 6900 mg/kg in data set [2]. Moreover, the Serum-triglyceride stood at 13 ± 5 mg/dL in the data set with Serum-triglyceride (setting [5]) and 13 ± 4 mg/dL with Serum-triglyceride (setting [9]).
Consider `C[N+](C)(C)CC(CC(N)=O)OC(=O)c1cccnc1` (stereo not shown) [D, Nicotinoyl carnitine amide chloride . HCl], for which the values for the LD50 at 72 h in data set [1] and in data set [2] were more than 7200 mg/kg and more than 7000 mg/kg, respectively.
For the compound `O=C(O)c1cccnc1` [Nicotinic acid, nicotinic acid, reference compound], the Serum-cholesterol in the data set on Serum-cholesterol (setting [5]) was determined as 74 mg/dL; in the data set with Serum-cholesterol (setting [6]), 70 mg/dL. Besides, in data set [3], the side effects result was “undesirable side effects such as facial skin flush and itching”. Besides, the Serum-triglyceride with Serum-triglyceride (setting [5]) was found to be 28 ± 7 mg/dL; in the data set with Serum-triglyceride (setting [9]), 34 ± 5 mg/dL. Besides, the “cholesterol and triglyceride levels in plasma” value in data set [4] is reported as “can be decreased”. Further, the Blood-free fatty acids with Blood-free fatty acids (setting [7]) is recorded as 38 μ moles/dl; with Blood-free fatty acids (setting [8]), 22 μ moles/dl; with Blood-free fatty acids (setting [5]), 60 μ moles/dl; in the data set with Blood-free fatty acids (setting [6]), 66 μ moles/dl. The Serum triglyceride in the data set with Serum triglyceride (setting [5]) worked out at 22 mg/dL; with Serum triglyceride (setting [6]), 27 mg/dL.
